From DBAASP
In brackets after ≈: the same amount, converted by molar mass.

Tests used:
Test in all cases: ≥ marks a high value that may be exact or a test limit, other limits are often not marked, values filed in µg/mL are converted to µM
Pseudomonas aeruginosa = test system: Pseudomonas aeruginosa
[1] = test system: Staphylococcus aureus NCTC 10788
[2] = test system: Candida albicans NCYC 1467
[3] = test system: Pseudomonas aeruginosa ATCC 27853
[4] = test system: Escherichia coli NCTC 10418
Staphylococcus aureus = test system: Staphylococcus aureus
[5] = test system: Staphylococcus aureus NCTC 12493
[6] = test system: Escherichia coli ATCC 25922
[7] = test system: Pseudomonas aeruginosa CUN 4158-02
[8] = test system: Staphylococcus aureus ATCC 25923
[9] = test system: Bordetella bronchiseptica CUN 11844-99
Escherichia coli UB1005 = test system: Escherichia coli UB1005
[10] = test system: Pseudomonas aeruginosa H547
[11] = test system: Pseudomonas aeruginosa K799
[12] = test system: Burkholderia cepacia ATCC 25416
[13] = test system: Salmonella enterica subsp. enterica serovar Typhimurium ATCC 14028s
[14] = test system: Pseudomonas aeruginosa H744
[15] = test system: Pseudomonas aeruginosa Z61
[16] = test system: Mycobacterium tuberculosis H37Rv
[17] = test system: Pseudomonas aeruginosa H187
[18] = test system: Pseudomonas aeruginosa H1001

CC[C@H](C)[C@@H]1NC(=O)[C@@H](NC(=O)[C@H](Cc2ccccc2)NC(=O)[C@H](C)NC(=O)[C@H](CCCCN)NC(=O)[C@H](CCCCN)NC(=O)[C@H](CC(C)C)NC(=O)[C@H](CC(C)C)NC(=O)[C@H](Cc2ccccc2)NC(=O)[C@@H](NC(=O)[C@H](CO)NC(=O)[C@@H]2CCCN2C(=O)[C@@H](NC(=O)[C@@H](NC(=O)[C@@H](N)Cc2ccccc2)[C@@H](C)CC)C(C)C)[C@@H](C)CC)CSSC[C@@H](C(=O)O)NC(=O)[C@H](CCCCN)NC(=O)[C@H](CCCCN)NC(=O)[C@H](CC(C)C)NC(=O)[C@H](C)NC1=O [FIVPSIFLLKKAFCIALKKC]
MIC (Pseudomonas aeruginosa): > 512 µM
MIC [1]: 4 µM (≈ 9.12 µg/mL)
MIC [2]: 4 µM (≈ 9.12 µg/mL)
MIC [3]: > 512 µM
MIC [4]: 16 µM (≈ 36.5 µg/mL)
MIC (Staphylococcus aureus): 8 µM (≈ 18.2 µg/mL)
MIC [5]: 4 µM (≈ 9.12 µg/mL)

CC(C)C[C@H](NC(=O)CNC(=O)[C@H](CCCCN)NC(=O)[C@H](Cc1ccccc1)NC(=O)[C@H](CCCCN)NC(=O)[C@H](Cc1c[nH]c2ccccc12)NC(=O)[C@H](CCCN=C(N)N)NC(=O)[C@H](Cc1ccccc1)NC(=O)[C@H](CCCCN)NC(=O)[C@H](CCCCN)NC(=O)[C@H](Cc1ccc(O)cc1)NC(=O)[C@H](CCCN=C(N)N)NC(=O)[C@H](CCCN=C(N)N)NC(=O)CN)C(=O)N[C@@H](Cc1ccccc1)C(=O)N[C@@H](CC(C)C)C(=O)N[C@@H](Cc1ccccc1)C(=O)N[C@@H](CC(C)C)C(=O)NCC(N)=O [GRRYKKFRWKFKGLFLFLG]
MIC [6]: 26.1 µM (≈ 64 µg/mL)
MIC [7]: 26.1 µM (≈ 64 µg/mL)
MIC [8]: 26.1 µM (≈ 64 µg/mL)
MIC [9]: 6.54 µM (≈ 16 µg/mL)

CC[C@H](C)[C@H](NC(=O)CNC(=O)[C@@H](NC(=O)[C@H](CCCCN)NC(=O)[C@H](CCCCN)NC(=O)[C@H](Cc1ccccc1)NC(=O)[C@H](CC(C)C)NC(=O)[C@@H](N)CCCCN)[C@@H](C)CC)C(=O)NCC(=O)N[C@@H](C)C(=O)N[C@H](C(=O)N[C@@H](CC(C)C)C(=O)N[C@@H](CCCCN)C(=O)N[C@H](C(=O)N[C@@H](CC(C)C)C(=O)N[C@H](C(=O)N[C@H](C(=O)NCC(=O)N[C@@H](CC(C)C)C(=O)N1CCC[C@H]1C(=O)N[C@@H](C)C(=O)N[C@@H](CC(C)C)C(=O)N[C@@H](CCCCN)C(=O)N[C@@H](CC(C)C)C(=O)N[C@H](C(=O)N[C@@H](CC(C)C)C(=O)N[C@@H](CCCCN)C(=O)O)[C@@H](C)O)[C@@H](C)O)[C@@H](C)O)C(C)C)C(C)C [KLFKKIGIGAVLKVLTTGLPALKLTLK]
MIC (Escherichia coli UB1005): 1.75 µM (≈ 5 µg/mL)
MIC [10]: 11.2 µM (≈ 32 µg/mL)
MIC [11]: 11.2 µM (≈ 32 µg/mL)
MIC [12]: 22.3 µM (≈ 64 µg/mL)
MIC [13]: 10.1 µM (≈ 29 µg/mL)
MIC [14]: 1.4 µM (≈ 4 µg/mL)
MIC [15]: 6.63 µM (≈ 19 µg/mL)

CSCC[C@H](NC(=O)[C@H](CCC(=O)O)NC(=O)[C@H](CCCN=C(N)N)NC(=O)[C@@H](N)CCCCN)C(=O)N[C@@H](CCCCN)C(=O)N[C@@H](CCCN=C(N)N)C(=O)N1CCC[C@H]1C(=O)NCC(=O)N[C@@H](CCCCN)C(=O)NCC(=O)N[C@@H](CC(N)=O)C(=O)N[C@@H](CCCN=C(N)N)C(=O)N[C@@H](CC(N)=O)C(=O)N[C@@H](CC(N)=O)C(=O)N[C@@H](Cc1c[nH]c2ccccc12)C(=O)N[C@@H](CCCCN)C(=O)N[C@@H](CCCCN)C(=O)N[C@@H](CCC(=O)O)C(=O)N[C@@H](Cc1ccc(O)cc1)C(=O)O [KREMKRPGKGNRNNWKKEY]
MIC [16]: ≥ 82.7 µM

CC[C@H](C)[C@H](NC(=O)[C@H](CC(C)C)NC(=O)[C@H](C)NC(=O)[C@@H]1CCCN1C(=O)[C@H](CC(C)C)NC(=O)CNC(=O)[C@@H](NC(=O)[C@@H](NC(=O)[C@H](CC(C)C)NC(=O)[C@@H](NC(=O)[C@H](CCCCN)NC(=O)[C@H](CCCCN)NC(=O)[C@@H](NC(=O)[C@H](C)NC(=O)[C@@H](NC(=O)[C@@H](NC(=O)[C@H](CC(C)C)NC(=O)[C@H](CCCCN)NC(=O)[C@H](CCCCN)NC(=O)[C@@H](NC(=O)[C@H](Cc1ccccc1)NC(=O)[C@H](CCC(=O)O)NC(=O)[C@H](CCCCN)NC(=O)[C@H](Cc1c[nH]c2ccccc12)NC(=O)[C@@H](N)CCCCN)[C@@H](C)CC)[C@@H](C)O)[C@@H](C)O)C(C)C)C(C)C)[C@@H](C)O)[C@@H](C)O)C(=O)N[C@@H](CO)C(=O)O [KWKEFIKKLTTAVKKVLTTGLPALIS]
MIC (Escherichia coli UB1005): 0.823 µM (≈ 2.4 µg/mL)
MIC [17]: 1.65 µM (≈ 4.8 µg/mL)

CC[C@H](C)[C@H](NC(=O)[C@H](CC(C)C)NC(=O)[C@H](C)NC(=O)[C@H](CC(C)C)NC(=O)[C@@H]1CCCN1C(=O)[C@H](CCCCN)NC(=O)[C@H](C)NC(=O)[C@@H](NC(=O)[C@@H](NC(=O)[C@@H](NC(=O)[C@@H](NC(=O)[C@H](CCCCN)NC(=O)[C@H](CCCCN)NC(=O)[C@H](C)NC(=O)[C@H](C)NC(=O)[C@H](CO)NC(=O)[C@@H](NC(=O)[C@H](CC(C)C)NC(=O)[C@H](CCCCN)NC(=O)[C@H](CCCCN)NC(=O)[C@@H](NC(=O)[C@H](Cc1ccccc1)NC(=O)[C@H](CO)NC(=O)[C@H](CCCCN)NC(=O)[C@H](Cc1c[nH]c2ccccc12)NC(=O)[C@@H](N)CCCCN)[C@@H](C)CC)[C@@H](C)O)C(C)C)C(C)C)[C@@H](C)O)[C@@H](C)O)C(=O)N[C@@H](CO)C(=O)O [KWKSFIKKLTSAAKKVVTTAKPLALIS]
MIC (Escherichia coli UB1005): 0.676 µM (≈ 2 µg/mL)
MIC [10]: 5.41 µM (≈ 16 µg/mL)
MIC [11]: 1.35 µM (≈ 4 µg/mL)
MIC [12]: 21.6 µM (≈ 64 µg/mL)
MIC [13]: 1.69 µM (≈ 5 µg/mL)
MIC [14]: 0.676 µM (≈ 2 µg/mL)
MIC [15]: 1.35 µM (≈ 4 µg/mL)

CC[C@H](C)[C@H](NC(=O)[C@H](Cc1ccccc1)NC(=O)[C@H](CO)NC(=O)[C@H](CCCCN)NC(=O)[C@H](Cc1c[nH]c2ccccc12)NC(=O)[C@@H](N)CCCCN)C(=O)N[C@@H](CCCCN)C(=O)N[C@@H](CC(N)=O)C(=O)N[C@@H](CC(C)C)C(=O)N[C@@H](CCC(=O)O)C(=O)N[C@@H](CCCCN)C(=O)N[C@H](C(=O)N[C@@H](CC(C)C)C(=O)N[C@@H](CCCCN)C(=O)N1CCC[C@H]1C(=O)NCC(=O)NCC(=O)N[C@@H](CC(C)C)C(=O)N[C@@H](CC(C)C)C(=O)N[C@@H](CO)C(=O)N[C@@H](CC(N)=O)C(=O)N[C@H](C(=O)N[C@H](C(=O)N[C@H](C(=O)N[C@@H](CO)C(=O)N[C@@H](CC(C)C)C(=O)O)[C@@H](C)O)C(C)C)[C@@H](C)CC)C(C)C [KWKSFIKNLEKVLKPGGLLSNIVTSL]
MIC (Escherichia coli UB1005): 0.343 µM (≈ 1 µg/mL)
MIC [17]: 2.75 µM (≈ 8 µg/mL)

CC[C@H](C)[C@H](NC(=O)[C@H](C)NC(=O)[C@H](CC(N)=O)NC(=O)[C@H](CCSC)NC(=O)[C@@H]1CCCN1)C(=O)N[C@@H](CCCCN)C(=O)N[C@@H](CC(C)C)C(=O)N[C@@H](CC(C)C)C(=O)N[C@@H](CS)C(=O)N[C@@H](CCCN=C(N)N)C(=O)O [PMNAIKLLCR]
MIC [18]: ≥ 173 µM

CC[C@H](C)[C@H](NC(=O)[C@H](CCCN=C(N)N)NC(=O)[C@H](CCCCN)NC(=O)[C@@H]1CCCN1C(=O)[C@@H]1CCCN1C(=O)[C@H](CCCN=C(N)N)NC(=O)[C@@H]1CCCN1C(=O)[C@H](CCCN=C(N)N)NC(=O)[C@@H]1CCCN1C(=O)[C@H](CC(C)C)NC(=O)[C@H](Cc1ccc(O)cc1)NC(=O)[C@@H]1CCCN1C(=O)[C@@H]1CCCN1C(=O)[C@H](CCCCN)NC(=O)[C@H](CC(=O)O)NC(=O)[C@@H](N)C(C)C)C(=O)N[C@@H](Cc1ccc(O)cc1)C(=O)N[C@@H](CC(N)=O)C(=O)N[C@@H](CCCN=C(N)N)C(=O)NCC(=O)O [VDKPPYLPRPRPPKRIYNRG]
MIC [18]: 0.112 µM (≈ 0.27 µg/mL)

CC[C@H](C)[C@H](NC(=O)[C@H](CCCN=C(N)N)NC(=O)[C@H](CCCN=C(N)N)NC(=O)[C@H](CCCN=C(N)N)NC(=O)[C@@H]1CCCN1C(=O)[C@H](CCCN=C(N)N)NC(=O)[C@@H]1CCCN1C(=O)[C@H](CCCN=C(N)N)NC(=O)[C@@H]1CCCN1C(=O)[C@H](CC(C)C)NC(=O)[C@H](Cc1ccc(O)cc1)NC(=O)[C@@H]1CCCN1C(=O)[C@@H]1CCCN1C(=O)[C@H](CCCCN)NC(=O)[C@H](CC(=O)O)NC(=O)[C@@H](N)C(C)C)C(=O)N[C@@H](Cc1ccc(O)cc1)C(=O)N[C@@H](CC(N)=O)C(=O)N[C@@H](CCCN=C(N)N)C(=O)NCC(=O)O [VDKPPYLPRPRPRRRIYNRG]
MIC [18]: 0.12 µM (≈ 0.3 µg/mL)
